# From US6555125B2, “Lesion and ulcer medication” (priority 1999, dated 2003)
# Tests used:
# [1] = Antimicrobial/bacteriostatic effect of zinc oxide at low levels; conditions: even at low levels
# Streptococcus mutans = conditions: especially with respect to Streptococcus mutans; cited from earlier work
smiles,measurement,setting,value
"[O]=[Zn] [Zinc oxide, Zinc Oxide]",antimicrobial/bacteriostatic effect,[1],effective antimicrobial/bacteriostatic effect
same,antimicrobial properties,Streptococcus mutans,antimicrobial properties
